Results reported in patent US10653691B2, “Method of promoting remyelination” (Case Western Reserve University, priority 2013, dated 2020).
Entries after “also recorded” stand apart in the source; their conditions may differ.

How the values were obtained:
MOG35-55 EAE mouse model = test: MOG35-55 chronic progressive EAE model; conditions: for areas of myelin disruption in the white matter (luxol fast blue, MBP immunohistochemistry): cervical spinal cords; for functional improvement (disease score): daily i.p. for 10 days from peak of disease; for MBP expression and extent of demyelination in the spinal cord: histology after treatment, vs vehicle; for average clinical scores and cumulative clinical scores: larger treatment cohort, n=12 to 18 mice per group; for immune cell infiltration into the lesion areas (IBA1 staining): spinal cords after treatment
Experimental: Immunohistochemistry was performed as previously described. In short, tissue sections or whole slices were washed three times in PBS, blocked in PBS containing Triton X-100 (0.1%) and normal donkey serum (NDS, 2% for sections and 10% for cerebellar slices) and incubated with primary antibody overnight. For MBP immunohistochemistry, the primary antibody solution consisted of 2% NDS, 2% bovine serum albumin, and 0.1% saponin. For all other antibodies, the primary antibody solution consisted of 2% NDS and 0.1% Triton X-100. Primary antibodies used included rat anti-MBP (Abcam, ab7349; 1:100), mouse anti-APC CC1 clone (Millipore, MABC200; 1:500), and rabbit anti-IBA1 (Wako Chemicals, 019-19741; 1:1,000). The tissue was then washed in PBS and incubated in secondary antibodies for […]. Secondary detection was performed with Alexa Fluor-conjugated secondary antibodies (1:500) for 1 h. Luxol fast blue staining was performed as previously described.
Samples were processed as previously described. In short, samples were osmicated, stained en bloc with uranyl acetate, and embedded in EMbed 812, an Epon-812 substitute (EMS). Sections (1 μm) were cut and stained with toluidine blue and visualized on a light microscope (Leica DM5500B). Additional thin sections were cut, carbon coated and imaged either on a JEOL JEM-1200-EX electron microscope or a T12 electron microscope (FEI).
EAE was induced by immunizing 10-week-old C57BL/6 female mice with […] injection of […] complete Freund's adjuvant emulsion (Hooke Laboratories). One hour after immunization, mice were given 100 ng of pertussis toxin by 100 μl intraperitoneal injection. A second dose of pertussis toxin was administered the next day. EAE onset was monitored daily and scored using a clinical scale where 0 represented no abnormality; 1, limp tail; 2, limp tail and hind limb weakness; 3, hind limb paralysis; 4, hind limb paralysis and forelimb weakness; and 5, moribund. […] Once mice reached peak of disease ˜day 15; clinical score=3) they were randomized into treatment groups, and drug or vehicle (DMSO in saline) was administered intraperitoneally daily for 10 days (n=12-16 mice per group). […] Experimenters were blinded to the identity of the treatments and animals were scored daily. Cumulative disease scores for each animal were calculated during the treatment period, and a two-tailed t-test compared drug—with vehicle-treated groups. The extent of recovery for each animal was calculated as the difference between the peak disease score and the score at the end of each experiment, and a two-tailed t-test was used to compare each treatment with vehicle. External validation of MOG35-55 EAE experiments (n=12 mice per group) was performed at Hooke Laboratories with experimenters blinded to the identity of the substances.

[1] = system: corpus callosum of mouse pups; test: Developmental myelination in mouse pups; type: in vivo; conditions: for number of CC1+ oligodendrocytes in the lateral corpus callosum / portion/length of corpus callosum covered by MBP+ fibres: pups treated daily for 4 days from postnatal day 2, clobetasol 2 mg/kg, miconazole 10 mg/kg i.p., vs vehicle
Text: On postnatal day 6 the pups were anaesthetized using ketamine and xylazine and euthanized by transcardial perfusion with 4% PFA. Tissue was fixed overnight in 4% PFA, equilibrated in 30% sucrose, and embedded in OCT. Sections (20 μm) were cut and processed for CC1 and MBP immunohistochemistry. ImageJ was then used to count and measure area of the corpus callosum as well as measure the extent of the corpus callosum length covered by MBP1 processes. Eight coronal sections containing corpus callosum rostral to the hippocampus from at least three animals per group were used for these analyses. To quantitate extent of MBP in the corpus callosum, a line was drawn through the centre of the corpus callosum from the lateral tip to the dorsal most extent of MBP expression in the corpus callosum. The length of this line was measured and then the dorsal-most point of the line was extended to the dorsal tip of the corpus callosum and measured to yield the length of the lateral callosum. The two numbers were divided to get the MBP/corpus callosum proportion. A two-tailed t-test was used to compare drug—with vehicle-treated groups.

ERK1/2 = test: Western blot of ERK1/2 phosphorylation in OPCs; type: cell-based, mouse; conditions: OPCs treated for 1 h
Experimental: EpiSC-derived OPCs were seeded into poly-Lornithine/laminin coated six-well plates and allowed to attach for 2 h in DMEM/F12 without additional factors. Cells were treated with indicated inhibitors or DMSO for 1 h-SCH772984 (ChemieTek, […]), SB590885 (Tocris, 10 nM), LY294002 (Tocris, 10 μM), and PD0325901 (Stemgent, 1 μM). Cells were then stimulated with drug or FGF2 (R&DSystems; 20 ng ml^−1) for 1 h and then lysed in 200 μL RIPA buffer (0.15 M NaCl, 0.05M Tris, pH=8.0, 1 mM EDTA, 1% Triton X-100, 0.1% SDS, 10% glycerol, HALT protease and phosphatase inhibitor (Thermo Fisher) added just before use) and incubated on ice for 20 min. Lysates were centrifuged at 4° C. and supernatant collected. Protein concentrations were determined by Pierce BCA protein assay kit (Thermo Fisher). Equal amounts of protein were resolved in a reduced manner on NuPAGE 4-12% Bis-Tris gels (Life Technologies) and transferred onto PVDF membranes (Life Technologies). Blots were blocked in either 5% BSA (phosphoprotein) or 5% milk (non phosphoprotein). Primary antibodies were all from the same vendor (Cell Signaling) and included phospho-Erk1/2 (4370S, clone D13.14.4E; 1:2,000), ERK1/2 (9107S, clone 3A7; 1:2,000), phospho-glucocorticoid receptor (4161S; 1:1,000), and glucocorticoid receptor (12041, clone D6H2L; 1:1,000) followed by incubation with HRP-conjugated secondary antibodies and chemiluminescent enhancement by West Pico substrate (Thermo Fisher).

glucocorticoid receptor = test: Western blot of glucocorticoid receptor phosphorylation at Ser220 in OPCs; type: cell-based, mouse; conditions: OPCs treated for 1 h
Experimental: EpiSC-derived OPCs were seeded into poly-Lornithine/laminin coated six-well plates and allowed to attach for 2 h in DMEM/F12 without additional factors. Cells were treated with indicated inhibitors or DMSO for 1 h-SCH772984 (ChemieTek, 1 mM), SB590885 (Tocris, 10 nM), LY294002 (Tocris, 10 μM), and PD0325901 (Stemgent, 1 μM). Cells were then stimulated with drug or FGF2 (R&DSystems; 20 ng ml^−1) for 1 h and then lysed in 200 μL RIPA buffer (0.15 M NaCl, 0.05M Tris, pH=8.0, 1 mM EDTA, 1% Triton X-100, 0.1% SDS, 10% glycerol, HALT protease and phosphatase inhibitor (Thermo Fisher) added just before use) and incubated on ice for 20 min. Lysates were centrifuged at 4° C. and supernatant collected. Protein concentrations were determined by Pierce BCA protein assay kit (Thermo Fisher). […] Blots were blocked in either 5% BSA (phosphoprotein) or 5% milk (non phosphoprotein).

naive CD4+ T cells = test: Naive CD4+ T-cell assays; type: cell-based, mouse; conditions: Th1 or Th17 driving conditions, 4 days
Experimental: Naive CD4+ T cells (CD4+L-selectin^hi cells) were purified using AutoMacs Magnetic Bead cell separation technology (Miltenyi Biotech) from total lymph node cells isolated from unprimed mice with purity ranging from 98 to 99.9%. For in vitro activation, 5×10^5 naive CD4^+ T cells were activated in the presence of plate-bound anti CD3 (1 μgml^−1) plus Th1—(200 U ml^−1 interleukin-2 (IL-2), 40 U ml^−1 IL-12, 10 μgml^−1 anti-IL-4) or Th17—([…], 50 ng ml^−1 IL-6, 1 μgml^−1 anti-IFN-γ, 1 μgml^−1 anti-IL-4, 1 μgml^−1 anti-IL-2) promoting conditions. On day 4, the cultured T cells were collected and the percentage of viable cytokine positive cells assessed by flow cytometry. The cells were stained with a LIVE/DEAD Fixable Violet Dead Cell Stain Kit, for 405 nm excitation (Life Technologies), anti CD4-APC/Cy7 (clone RM4-5), anti-IFN-γ-PerCP/Cy5.5 (clone XMG1.2), and anti-IL-17-APC (clone eBio17B7) (eBioscience). Viable cells (5×10^5) were analysed per individual sample using a BD Canto II cytometer (BD Biosciences), and the data were analysed using FloJo version 9.5.2 software (Tree Star).

[2] = miconazole 10 mg/kg, clobetasol 2 mg/kg, benztropine 10 mg/kg
[3] = 2 mg/kg daily i.p., postnatal day 2-6

| SMILES | areas of myelin disruption in the white matter (luxol fast blue, MBP immunohistochemistry) (MOG35-55 EAE mouse model) | functional improvement (disease score) (MOG35-55 EAE mouse model; [2]) | MBP expression and extent of demyelination in the spinal cord (MOG35-55 EAE mouse model) | average clinical scores and cumulative clinical scores (MOG35-55 EAE mouse model) | overt toxicity to the animals (MOG35-55 EAE mouse model; miconazole 10 mg/kg, clobetasol 2 mg/kg, benztropine 10 mg/kg, daily i.p. 10 days) | immune cell infiltration into the lesion areas (IBA1 staining) (MOG35-55 EAE mouse model) | mortality of treated pups [1, 3] | sickness and body weight of treated pups [1, 3] | number of CC1+ oligodendrocytes in the lateral corpus callosum [1] | portion/length of corpus callosum covered by MBP+ fibres [1] | induction of ERK1/2 phosphorylation in OPCs (ERK1/2) | phosphorylation of glucocorticoid receptor at Ser220 (glucocorticoid receptor) | naive T-cell differentiation (naive CD4+ T cells) |
| --- | --- | --- | --- | --- | --- | --- | --- | --- | --- | --- | --- | --- | --- |
| C[C@H]1C[C@H]2[C@@H]3CCC4=CC(=O)C=C[C@]4(C)[C@@]3(F)[C@@H](O)C[C@]2(C)[C@@]1(O)C(=O)CCl [clobetasol] | decrease in areas of myelin disruption in the white matter | marked improvement in function | restoration of MBP expression and a reduction in the extent of demyelination in the spinal cord | significant reduction of disease and functional improvement | no drugs showed any overt evidence of toxicity | small reduction of immune cell infiltration into the lesion areas, especially in clobetasol-treated animals, but not an abrogation | some animals of the cohort died before end of treatment | exhibited sickness on the basis of this treatment, with low body weight | significant increase in the number of CC1^+ oligodendrocytes; also recorded: marked increase in the number of CC1-positive oligodendrocytes | significantly larger portion of the corpus callosum was populated by MBP^+ fibre tracts; also recorded: significant increase in the length of the corpus callosum covered with aligned MBP^+ fibres | did not induce ERK1/2 phosphorylation | increased the phosphorylation of glucocorticoid receptor at Ser220 | altered naïve T-cell differentiation |
| Clc1ccc(COC(Cn2ccnc2)c2ccc(Cl)cc2Cl)c(Cl)c1 (stereo not drawn) [miconazole] | decrease in areas of myelin disruption in the white matter | marked improvement in function | restoration of MBP expression and a reduction in the extent of demyelination in the spinal cord | significant reduction of disease and functional improvement | – | small reduction of immune cell infiltration into the lesion areas | – | – | significant increase in the number of CC1^+ oligodendrocytes; also recorded: marked increase in the number of CC1-positive oligodendrocytes | significantly larger portion of the corpus callosum was populated by MBP^+ fibre tracts; also recorded: significant increase in the length of the corpus callosum covered with aligned MBP^+ fibres | strong and sustained phosphorylation | – | – |
